Laboratory results taken from patent publication US20190365776A1, “THERAPEUTIC AGENT FOR OCULAR FUNDUS DISEASE” (KYUSHU UNIVERSITY, NATIONAL UNIVERSITY CORPORATION, priority 2013, published 2019).

Assays:
[1] = tested on: mice OIR (Oxygen-Induced Retinopathy) model; assay: Mice OIR model, fluorescein fundus angiography; assay type: in vivo, C57BL/6JJcl mice; conditions: 0.8% solution, ocular instillation three times a day, day 17 after birth
Excerpt: C57BL/6JJcl mice born on the same day were reared in a 75%-oxygen environment from day 7 after birth, and were then transferred to a normal indoor environment on day 12 after birth to start administration by ocular instillation. Test groups were a saline instillation group (control), a 0.4% compound 1 solution instillation group, a 0.8% compound 1 solution instillation group, and a 0.4% fasudil solution instillation group, and saline, the compound 1 solution, or the fasudil solution was administered by ocular instillation three times a day. On day 17 after birth, ischemic retinal areas (non-perfused areas) and neovascular areas were quantified for evaluation by flat-mounting or fluorescein fundus angiography. More specifically, 1 g/kg of pentobarbital (Nembutal) was administered intraperitoneally for euthanasia under deep anesthesia, and then both eyeballs were excised and fixed with 4% paraformaldehyde (PFA) at 37° C. for 1 hour, and the corneal limbus was circumferentially incised to remove the cornea and iris from the eyeball. […] Then, the image of the flat-mounted retina was taken with a fluorescence microscope (BZ-9000, KEYENCE Corp, Osaka, Japan), and the proportion of the non-perfused area to the entire retina and the proportion of the neovascular area to the entire retina were calculated by the following formulas in NIH image J software. […]

[2] = tested on: mice OIR (Oxygen-Induced Retinopathy) model; assay: Mice OIR (oxygen-induced retinopathy) model, flat-mounted retina; assay type: in vivo, C57BL/6JJcl mice; conditions: ocular instillation 20 μL three times a day, day 12 to day 17 after birth, flat mount
Method: The effectiveness of (S)-(−)-1-(4-fluoro-5-isoquinolinesulfonyl)-2-methyl-1,4-homopiperazine (compound 1) in a mice OIR model commonly used as a model of ischemic retinopathy such as diabetic retinopathy was examined in the following manner. Compound 1 solutions: 0.4% solution, 0.8% solution (instillation volume: 20 μL) Fasudil solution: 0.4% solution (instillation volume: 20 μL) Test animals: C57BL/6JJcl mice (sex: male, 8 to 14 mice per group) C57BL/6JJcl mice born on the same day were reared in a 75%-oxygen environment from day 7 after birth, and were then transferred to a normal indoor environment on day 12 after birth to start administration by ocular instillation. Test groups were a saline instillation group (control), a 0.4% compound 1 solution instillation group, a 0.8% compound 1 solution instillation group, and a 0.4% fasudil solution instillation group, and saline, the compound 1 solution, or the fasudil solution was administered by ocular instillation three times a day. On day 17 after birth, ischemic retinal areas (non-perfused areas) and neovascular areas were quantified for evaluation by flat-mounting or fluorescein fundus angiography. More specifically, 1 g/kg of pentobarbital (Nembutal) was administered intraperitoneally for euthanasia under deep anesthesia, and then both eyeballs were excised and fixed with 4% paraformaldehyde (PFA) at 37° C. for 1 hour, and the corneal limbus was circumferentially incised to remove the cornea and iris from the eyeball. Then, after fixation with 4% PFA at 37° C. for 1 hour, the lens, sclera, and choroid were removed, and the eye cup including the retina was isolated. Further, the retina was fixed with 4% PFA at 37° C. for 3 hours, washed with PBS three times (15 min per wash, 37° C.), dehydrated (methanol 50% 100%, 10 min per methanol treatment, 37° C.), washed with PBS three times (15 min per wash, 37° C.), and blocked with Blocking Buffer (1% BSA, 0.5% Triton-X in PBS) for 60 minutes (37° C.). Then, the retina was treated with a primary antibody (0.7% FITC-conjugates Anti-lectin Ab in PBS, 4° C., overnight) and washed with PBS three times (15 min per wash, 37° C.). Then, 4 to 6 cuts were radially made in the eye cup, and the flat-mounted retina was covered with Crystal Mount. Then, the image of the flat-mounted retina was taken with a fluorescence microscope (BZ-9000, KEYENCE Corp, Osaka, Japan), and the proportion of the non-perfused area to the entire retina and the proportion of the neovascular area to the entire retina were calculated by the following formulas in NIH image J software. The thus obtained values were converted to relative values by regarding the obtained values of the saline instillation group (control) as 100%, and statistical analysis was performed by Wilcoxon test. Non-perfused area=area of avascular region/area of entire retina Neovascular area=area of neovascular region/area of entire retina

Question: Which results are given for `C[C@H]1CNCCCN1S(=O)(=O)c1cccc2cncc(F)c12` [compound 1, (S)-(−)-1-(4-fluoro-5-isoquinolinesulfonyl)-2-methyl-1,4-homopiperazine]?
Answer: relative value of the neovascular area (saline instillation group = 100%) [1]: 41.6%; relative value of the neovascular area (saline instillation group = 100%) ([2]; 0.4% solution): 58.2%; relative value of the non-perfused area (saline instillation group = 100%) ([2]; 0.4% solution): 77.0%; relative value of the neovascular area (saline instillation group = 100%) ([2]; 0.8% solution): 52.7%; relative value of the non-perfused area (saline instillation group = 100%) ([2]; 0.8% solution): 58.1%
